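Protocol summary: plate cells (96-well), add compound at 5 concentrations, incubate 48 h, interpolate endpoints linearly. Here, GI50 denotes the concentration required for 50% inhibition of growth.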 Activity calls are given as the source filed them. Rule as the data show it: active = GI50 up to about 1.1 µM and inactive = higher.
How the values were obtained:
Assay in all cases: NCI-60 cell line screen, 48 h
OVCAR-5 = tested on: OVCAR-5
SW-620 = tested on: SW-620
LOX IMVI = tested on: LOX IMVI
Malme-3M = tested on: Malme-3M
A498 = tested on: A498
K562 = tested on: K562
SF-295 = tested on: SF-295
OVCAR-8 = tested on: OVCAR-8
MCF7 = tested on: MCF7
SN12C = tested on: SN12C
UACC-62 = tested on: UACC-62
786-0 = tested on: 786-0
RXF 393 = tested on: RXF 393
RPMI-8226 = tested on: RPMI-8226
NCI-H226 = tested on: NCI-H226
IGROV-1 = tested on: IGROV-1
SK-OV-3 = tested on: SK-OV-3
PC-3 = tested on: PC-3
SK-MEL-28 = tested on: SK-MEL-28
NCI-H23 = tested on: NCI-H23

| SMILES | GI50 (OVCAR-5) | GI50 (SW-620) | GI50 (LOX IMVI) | GI50 (Malme-3M) | GI50 (A498) | GI50 (K562) | GI50 (SF-295) | GI50 (OVCAR-8) | GI50 (MCF7) | GI50 (SN12C) | GI50 (UACC-62) | GI50 (786-0) | GI50 (RXF 393) | GI50 (RPMI-8226) | GI50 (NCI-H226) | GI50 (IGROV-1) | GI50 (SK-OV-3) | GI50 (PC-3) | GI50 (SK-MEL-28) | GI50 (NCI-H23) |
| --- | --- | --- | --- | --- | --- | --- | --- | --- | --- | --- | --- | --- | --- | --- | --- | --- | --- | --- | --- | --- |
| COC(O)C12OC3CO[Si](C(C)C)(C(C)C)O[Si](C(C)C)(C(C)C)OC3C1Oc1nc(=O)ccn12 (stereo not given) | 15.7 µM (inactive) | > 36.8 µM (inactive) | 12.7 µM (inactive) | 13.1 µM (inactive) | 17.3 µM (inactive) | 1.52 µM (inactive) | 12.2 µM (inactive) | 11.2 µM (inactive) | 10.5 µM (inactive) | 13.3 µM (inactive) | 11 µM (inactive) | 15.2 µM (inactive) | 11.9 µM (inactive) | 1 µM (active) | 17.7 µM (inactive) | 12.3 µM (inactive) | 17.7 µM (inactive) | 4.7 µM (inactive) | > 100 µM (inactive) | 14.3 µM (inactive) |
| Nc1ccc2c(SCC(=O)Nc3ccccc3-c3ccccc3NC(=O)CSc3c4ccccc4nc4cc(N)ccc34)c3ccccc3nc2c1 | 70 µM (inactive) | 29.6 µM (inactive) | 22.9 µM (inactive) | 22.9 µM (inactive) | 29.9 µM (inactive) | 2.71 µM (inactive) | 31.5 µM (inactive) | 26.3 µM (inactive) | 12.4 µM (inactive) | 28.5 µM (inactive) | 18.9 µM (inactive) | 25.3 µM (inactive) | 34.9 µM (inactive) | 8.47 µM (inactive) | 29.3 µM (inactive) | 27 µM (inactive) | 43.2 µM (inactive) | 22.2 µM (inactive) | 21.8 µM (inactive) | 18 µM (inactive) |

— ChEMBL document CHEMBL1201862, “PubChem BioAssay data set” (2004)
